Values joined by “and” are separate entries in the source; they are usually repeats but may differ in a detail not shown here. Equal values may be shown once. Read-outs that look alike come from different tables or passages of the source.
How the values were obtained:
[1] = biological target: C. elegans (N2) complex I (NADH:ubiquinone oxidoreductase) (Caenorhabditis elegans, UniProt P24887+Q93873+Q94360); test: biochemical; assay type: biochemical
Outline: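 Complex I rate: initial linear slope of A600 over 15 min, expressed as percent of solvent control. Triple freeze-thawed mitochondria (0.2 mg/mL) in KPi pH 7.5, BSA 3 mg/mL, NADH 80 μM, decylubiquinone 60 μM, DCIP 160 μM, antimycin A, KCN.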

L1 wild-type C. elegans = conditions: […], mean of replicates

Chain of C. elegans (N2) complex I (NADH:ubiquinone oxidoreductase) (Q94360 17-199): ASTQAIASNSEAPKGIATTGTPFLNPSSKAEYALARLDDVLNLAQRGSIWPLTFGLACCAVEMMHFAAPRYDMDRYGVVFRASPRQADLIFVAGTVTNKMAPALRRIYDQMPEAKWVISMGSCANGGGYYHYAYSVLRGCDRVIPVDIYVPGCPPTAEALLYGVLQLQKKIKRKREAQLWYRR
Chain of C. elegans (N2) complex I (NADH:ubiquinone oxidoreductase) (P24887 whole entry): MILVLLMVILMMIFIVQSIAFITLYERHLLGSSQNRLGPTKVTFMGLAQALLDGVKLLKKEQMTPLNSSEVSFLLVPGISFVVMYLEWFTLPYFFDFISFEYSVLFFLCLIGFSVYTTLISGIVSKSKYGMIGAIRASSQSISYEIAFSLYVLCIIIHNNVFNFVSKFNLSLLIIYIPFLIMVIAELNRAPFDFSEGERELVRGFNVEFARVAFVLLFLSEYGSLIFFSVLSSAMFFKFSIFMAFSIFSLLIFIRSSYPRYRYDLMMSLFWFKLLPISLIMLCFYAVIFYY
Chain of C. elegans (N2) complex I (NADH:ubiquinone oxidoreductase) (Q93873 31-482): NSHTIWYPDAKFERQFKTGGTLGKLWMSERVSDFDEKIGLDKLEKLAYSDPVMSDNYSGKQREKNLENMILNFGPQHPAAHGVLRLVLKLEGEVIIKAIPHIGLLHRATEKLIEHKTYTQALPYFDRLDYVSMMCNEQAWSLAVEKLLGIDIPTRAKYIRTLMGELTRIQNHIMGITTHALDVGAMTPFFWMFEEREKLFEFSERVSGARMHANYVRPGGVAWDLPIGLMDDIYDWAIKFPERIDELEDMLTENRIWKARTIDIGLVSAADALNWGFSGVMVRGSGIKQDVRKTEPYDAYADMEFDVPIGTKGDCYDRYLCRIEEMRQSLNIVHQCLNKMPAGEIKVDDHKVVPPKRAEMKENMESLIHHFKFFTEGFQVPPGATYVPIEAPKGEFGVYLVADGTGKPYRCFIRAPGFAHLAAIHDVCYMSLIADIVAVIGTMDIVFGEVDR

With COC(=O)Nc1nc2ccc(Sc3ccccc3)cc2[nH]1 [fenbendazole, reference compound] the remaining activity at 0.125 µM ([1]; 0.125 µM, wild-type C. elegans mitochondria, mean of replicates, read-out: percent (%) in vitro complex I activity relative to solvent control) was 103%, the “percent (%) in vitro complex I activity relative to solvent control” value ([1]; 0.125 µM, wild-type C. elegans mitochondria, single replicate) was 106.082% and 99.397% and the remaining activity at 0.125 µM ([1]; 0.125 µM, wild-type C. elegans mitochondria, single replicate, read-out: percent (%) in vitro complex I activity relative to solvent control) was 102%. The remaining activity at 0.313 µM ([1]; 0.313 µM, wild-type C. elegans mitochondria, mean of replicates, read-out: percent (%) in vitro complex I activity relative to solvent control) was 101%, the “percent (%) in vitro complex I activity relative to solvent control” value ([1]; 0.313 µM, wild-type C. elegans mitochondria, single replicate) was 105.067% and 102.773% and the remaining activity at 0.313 µM ([1]; 0.313 µM, wild-type C. elegans mitochondria, single replicate, read-out: percent (%) in vitro complex I activity relative to solvent control) was 101%. For the same compound, the remaining activity at 0.625 µM ([1]; 0.625 µM, wild-type C. elegans mitochondria, mean of replicates, read-out: percent (%) in vitro complex I activity relative to solvent control) was 101%, the “percent (%) in vitro complex I activity relative to solvent control” value ([1]; 0.625 µM, wild-type C. elegans mitochondria, single replicate) was 108.826% and 84.037% and 107.828% and 101.922% and the remaining activity at 1.5 µM ([1]; 1.5 µM, wild-type C. elegans mitochondria, mean of replicates, read-out: percent (%) in vitro complex I activity relative to solvent control) was 101%. The “percent (%) in vitro complex I activity relative to solvent control” value ([1]; 1.5 µM, wild-type C. elegans mitochondria, single replicate) was 107.818% and 102.911% and 106.921% and 84.834%, the remaining activity at 3 µM ([1]; 3 µM, wild-type C. elegans mitochondria, mean of replicates, read-out: percent (%) in vitro complex I activity relative to solvent control) was 108% and the “percent (%) in vitro complex I activity relative to solvent control” value ([1]; 3 µM, wild-type C. elegans mitochondria, single replicate) was 108.394% and 103.450%. The remaining activity at 3 µM ([1]; 3 µM, wild-type C. elegans mitochondria, single replicate, read-out: percent (%) in vitro complex I activity relative to solvent control) was 111%, the remaining activity at 15 µM ([1]; 15 µM, wild-type C. elegans mitochondria, mean of replicates, read-out: percent (%) in vitro complex I activity relative to solvent control) was 103% and the “percent (%) in vitro complex I activity relative to solvent control” value ([1]; 15 µM, wild-type C. elegans mitochondria, single replicate) was 105.414% and 100.145%. The remaining activity at 15 µM ([1]; 15 µM, wild-type C. elegans mitochondria, single replicate, read-out: percent (%) in vitro complex I activity relative to solvent control) was 104%, the remaining activity at 37.5 µM ([1]; 37.5 µM, wild-type C. elegans mitochondria, mean of replicates, read-out: percent (%) in vitro complex I activity relative to solvent control) was 106% and the “percent (%) in vitro complex I activity relative to solvent control” value ([1]; 37.5 µM, wild-type C. elegans mitochondria, single replicate) was 108.185% and 102.298%. For the same compound, the remaining activity at 37.5 µM ([1]; 37.5 µM, wild-type C. elegans mitochondria, single replicate, read-out: percent (%) in vitro complex I activity relative to solvent control) was 112%, the remaining activity at 75 µM ([1]; 75 µM, wild-type C. elegans mitochondria, mean of replicates, read-out: percent (%) in vitro complex I activity relative to solvent control) was 99.7% and the “percent (%) in vitro complex I activity relative to solvent control” value ([1]; 75 µM, wild-type C. elegans mitochondria, single replicate) was 105.576% and 98.309%. For the same compound, the remaining activity at 75 µM ([1]; 75 µM, wild-type C. elegans mitochondria, single replicate, read-out: percent (%) in vitro complex I activity relative to solvent control) was 98.1%, the remaining activity at 0.0001 µM ([1]; dose 0.0001 µM, wild-type C. elegans, mean of replicates, read-out: in vitro complex I activity relative to solvent control, Mean) was 92.7% and the “in vitro complex I activity relative to solvent control, individual replicate” value ([1]; dose 0.0001 µM, wild-type C. elegans, single replicate) was 89.632% and 90.262%. For the same compound, the remaining activity at 0.0001 µM ([1]; dose 0.0001 µM, wild-type C. elegans, single replicate, read-out: in vitro complex I activity relative to solvent control, individual replicate) was 94.2%, the remaining activity at 0.0005 µM ([1]; dose 0.0005 µM, wild-type C. elegans, mean of replicates, read-out: in vitro complex I activity relative to solvent control, Mean) was 102% and the “in vitro complex I activity relative to solvent control, individual replicate” value ([1]; dose 0.0005 µM, wild-type C. elegans, single replicate) was 109.063% and 93.803% and 100.567%. For the same compound, the remaining activity at 0.0005 µM ([1]; dose 0.0005 µM, wild-type C. elegans, single replicate, read-out: in vitro complex I activity relative to solvent control, individual replicate) was 104%, the remaining activity at 0.001 µM ([1]; dose 0.001 µM, wild-type C. elegans, mean of replicates, read-out: in vitro complex I activity relative to solvent control, Mean) was 107% and the “in vitro complex I activity relative to solvent control, individual replicate” value ([1]; dose 0.001 µM, wild-type C. elegans, single replicate) was 112.362% and 106.090% and 103.456%. The remaining activity at 0.001 µM ([1]; dose 0.001 µM, wild-type C. elegans, single replicate, read-out: in vitro complex I activity relative to solvent control, individual replicate) was 107%, the remaining activity at 0.0025 µM ([1]; dose 0.0025 µM, wild-type C. elegans, mean of replicates, read-out: in vitro complex I activity relative to solvent control, Mean) was 106% and the “in vitro complex I activity relative to solvent control, individual replicate” value ([1]; dose 0.0025 µM, wild-type C. elegans, single replicate) was 111.626% and 103.191% and 101.180%. The remaining activity at 0.0025 µM ([1]; dose 0.0025 µM, wild-type C. elegans, single replicate, read-out: in vitro complex I activity relative to solvent control, individual replicate) was 107%, the remaining activity at 0.005 µM ([1]; dose 0.005 µM, wild-type C. elegans, mean of replicates, read-out: in vitro complex I activity relative to solvent control, Mean) was 106% and the “in vitro complex I activity relative to solvent control, individual replicate” value ([1]; dose 0.005 µM, wild-type C. elegans, single replicate) was 110.787% and 104.169% and 105.146%. For the same compound, the remaining activity at 0.005 µM ([1]; dose 0.005 µM, wild-type C. elegans, single replicate, read-out: in vitro complex I activity relative to solvent control, individual replicate) was 104%, the remaining activity at 0.013 µM ([1]; dose 0.013 µM, wild-type C. elegans, mean of replicates, read-out: in vitro complex I activity relative to solvent control, Mean) was 105% and the “in vitro complex I activity relative to solvent control, individual replicate” value ([1]; dose 0.013 µM, wild-type C. elegans, single replicate) was 109.484% and 102.444% and 103.368%. For the same compound, the remaining activity at 0.013 µM ([1]; dose 0.013 µM, wild-type C. elegans, single replicate, read-out: in vitro complex I activity relative to solvent control, individual replicate) was 105%, the remaining activity at 0.025 µM ([1]; dose 0.025 µM, wild-type C. elegans, mean of replicates, read-out: in vitro complex I activity relative to solvent control, Mean) was 108% and the “in vitro complex I activity relative to solvent control, individual replicate” value ([1]; dose 0.025 µM, wild-type C. elegans, single replicate) was 112.068% and 112.677% and 102.223%. For the same compound, the remaining activity at 0.025 µM ([1]; dose 0.025 µM, wild-type C. elegans, single replicate, read-out: in vitro complex I activity relative to solvent control, individual replicate) was 106%, the remaining activity at 0.063 µM ([1]; dose 0.063 µM, wild-type C. elegans, mean of replicates, read-out: in vitro complex I activity relative to solvent control, Mean) was 102% and the “in vitro complex I activity relative to solvent control, individual replicate” value ([1]; dose 0.063 µM, wild-type C. elegans, single replicate) was 106.376% and 104.996% and 99.618%. The remaining activity at 0.063 µM ([1]; dose 0.063 µM, wild-type C. elegans, single replicate, read-out: in vitro complex I activity relative to solvent control, individual replicate) was 98%, the remaining activity at 0.125 µM ([1]; dose 0.125 µM, wild-type C. elegans, mean of replicates, read-out: in vitro complex I activity relative to solvent control, Mean) was 103% and the “in vitro complex I activity relative to solvent control, individual replicate” value ([1]; dose 0.125 µM, wild-type C. elegans, single replicate) was 106.082% and 99.397%. For the same compound, the remaining activity at 0.125 µM ([1]; dose 0.125 µM, wild-type C. elegans, single replicate, read-out: in vitro complex I activity relative to solvent control, individual replicate) was 104%, the remaining activity at 0.313 µM ([1]; dose 0.313 µM, wild-type C. elegans, mean of replicates, read-out: in vitro complex I activity relative to solvent control, Mean) was 101% and the “in vitro complex I activity relative to solvent control, individual replicate” value ([1]; dose 0.313 µM, wild-type C. elegans, single replicate) was 105.067% and 102.773%. The remaining activity at 0.313 µM ([1]; dose 0.313 µM, wild-type C. elegans, single replicate, read-out: in vitro complex I activity relative to solvent control, individual replicate) was 96.6%, the remaining activity at 0.625 µM ([1]; dose 0.625 µM, wild-type C. elegans, mean of replicates, read-out: in vitro complex I activity relative to solvent control, Mean) was 101% and the “in vitro complex I activity relative to solvent control, individual replicate” value ([1]; dose 0.625 µM, wild-type C. elegans, single replicate) was 84.037% and 107.828% and 101.922% and 108.826%. The remaining activity at 1.5 µM ([1]; dose 1.5 µM, wild-type C. elegans, mean of replicates, read-out: in vitro complex I activity relative to solvent control, Mean) was 101%, the “in vitro complex I activity relative to solvent control, individual replicate” value ([1]; dose 1.5 µM, wild-type C. elegans, single replicate) was 102.911% and 106.921% and 84.834% and 107.818% and the remaining activity at 3 µM ([1]; dose 3 µM, wild-type C. elegans, mean of replicates, read-out: in vitro complex I activity relative to solvent control, Mean) was 108%. For the same compound, the “in vitro complex I activity relative to solvent control, individual replicate” value ([1]; dose 3 µM, wild-type C. elegans, single replicate) was 108.394% and 103.450%, the remaining activity at 3 µM ([1]; dose 3 µM, wild-type C. elegans, single replicate, read-out: in vitro complex I activity relative to solvent control, individual replicate) was 107% and the remaining activity at 15 µM ([1]; dose 15 µM, wild-type C. elegans, mean of replicates, read-out: in vitro complex I activity relative to solvent control, Mean) was 103%. The “in vitro complex I activity relative to solvent control, individual replicate” value ([1]; dose 15 µM, wild-type C. elegans, single replicate) was 105.414% and 100.145%, the remaining activity at 15 µM ([1]; dose 15 µM, wild-type C. elegans, single replicate, read-out: in vitro complex I activity relative to solvent control, individual replicate) was 101% and the remaining activity at 37.5 µM ([1]; dose 37.5 µM, wild-type C. elegans, mean of replicates, read-out: in vitro complex I activity relative to solvent control, Mean) was 106%. The “in vitro complex I activity relative to solvent control, individual replicate” value ([1]; dose 37.5 µM, wild-type C. elegans, single replicate) was 108.185% and 102.298%, the remaining activity at 37.5 µM ([1]; dose 37.5 µM, wild-type C. elegans, single replicate, read-out: in vitro complex I activity relative to solvent control, individual replicate) was 103% and the remaining activity at 75 µM ([1]; dose 75 µM, wild-type C. elegans, mean of replicates, read-out: in vitro complex I activity relative to solvent control, Mean) was 99.7%. The “in vitro complex I activity relative to solvent control, individual replicate” value ([1]; dose 75 µM, wild-type C. elegans, single replicate) was 105.576% and 98.309%, the remaining activity at 75 µM ([1]; dose 75 µM, wild-type C. elegans, single replicate, read-out: in vitro complex I activity relative to solvent control, individual replicate) was 96.8% and the “KCN survival assay value relative to DMSO control, Mean” value (L1 wild-type C. elegans; dose 0.2 µM) was 1.025. The “KCN survival assay value relative to DMSO control, Mean” value (L1 wild-type C. elegans; dose 0.4 µM) was 0.947, the “KCN survival assay value relative to DMSO control, Mean” value (L1 wild-type C. elegans; dose 0.8 µM) was 0.953 and the “KCN survival assay value relative to DMSO control, Mean” value (L1 wild-type C. elegans; dose 3.1 µM) was 0.953. For the same compound, the “KCN survival assay value relative to DMSO control, Mean” value (L1 wild-type C. elegans; dose 6.3 µM) was 0.899, the “KCN survival assay value relative to DMSO control, Mean” value (L1 wild-type C. elegans; dose 12.5 µM) was 0.967 and the “KCN survival assay value relative to DMSO control, Mean” value (L1 wild-type C. elegans; dose 25 µM) was 0.933. For the same compound, the “KCN survival assay value relative to DMSO control, Mean” value (L1 wild-type C. elegans; dose 50 µM) was 0.872 and the “KCN survival assay value relative to DMSO control, Mean” value (L1 wild-type C. elegans; dose 100 µM) was 0.880.

Reference: paper PMC11079024, “Identification of a family of species-selective complex I inhibitors as potential anthelmintics” (Nature Communications, 2024)
